Paper PMC11106456, “Increased Vasoactive Intestinal Peptide (VIP) in polycystic ovary syndrome patients undergoing IVF” (Frontiers in Endocrinology, 2024)

Assay: Biological stability of VIP in follicular fluid (ELISA, during defrosting)
Format: in vitro ADME
Conditions: human follicular fluid samples from IVF patients, stored at -80°C, measured during defrosting process; read-out sandwich ELISA (450 nm); p<0.05; Supplementary Figure 1
Experimental: FF was obtained after oocyte retrieval during IVF according to the following procedure. The follicular fluid aspirated from each patient was pooled in conical bottomed 15 ml polypropylene tubes and centrifugated at 1000 g for 3 minutes at 21°C. The supernatant was collected, transported to the laboratory and stored at -80°C until further analysis.
The enzyme-linked immunosorbent assay (ELISA) used to quantify VIP in follicular samples was based on the principle of sandwich enzyme immunoassay. The quantification was performed following manufacturer’s protocol of ELISA kit (ELK Biotechnology CO., Ltd). Briefly, the microtiter plate provided has been pre-coated with an antibody specific for VIP. 100 μL of standards and samples were added to the appropriate microtiter plate wells and incubated for 80 minutes at 37°C. After the wash, 100 μl/well of biotin-conjugated antibody solution was added and incubated for 50 minutes at 37°C. […] Next, a final wash was performed and 90 μL of 5-5’-tetramethylbenzidine (TMB) substrate solution was added and the color development was monitored and quantified after the addition of sulfuric acid solution. The absorbance was measured spectrophotometrically at 450 nm by using microplate spectrophotometer (Labsystem Multiskan MS). […] The concentration of VIP in the samples was determined by comparing the optical density of the samples to the standard curve. […]

Compound: CC[C@H](C)[C@H](NC(=O)[C@H](CO)NC(=O)[C@H](CC(N)=O)NC(=O)[C@H](CC(C)C)NC(=O)[C@H](Cc1ccc(O)cc1)NC(=O)[C@H](CCCCN)NC(=O)[C@H](CCCCN)NC(=O)[C@@H](NC(=O)[C@H](C)NC(=O)[C@H](CCSC)NC(=O)[C@H](CCC(N)=O)NC(=O)[C@H](CCCCN)NC(=O)[C@H](CCCN=C(N)N)NC(=O)[C@H](CC(C)C)NC(=O)[C@H](CCCN=C(N)N)NC(=O)[C@@H](NC(=O)[C@H](Cc1ccc(O)cc1)NC(=O)[C@H](CC(N)=O)NC(=O)[C@H](CC(=O)O)NC(=O)[C@@H](NC(=O)[C@H](Cc1ccccc1)NC(=O)[C@@H](NC(=O)[C@H](C)NC(=O)[C@H](CC(=O)O)NC(=O)[C@H](CO)NC(=O)[C@@H](N)Cc1c[nH]cn1)C(C)C)[C@@H](C)O)[C@@H](C)O)C(C)C)C(=O)N[C@@H](CC(C)C)C(=O)N[C@@H](CC(N)=O)C(N)=O [VIP, Vasoactive intestinal peptide]
- VIP concentration in follicular fluid over time (biological stability): significant reduction
